Data as given in patent US20020115611A1, “Methods for screening GABA-modulatory compounds for specified pharmacological activities” (priority 1999, published 2002).
pEC50, pKi: −log10 of the molar value.

Legend:
[1] = molecular target: GABAA receptors (Ro15-1788 / benzodiazepine site), rat cortex membranes; assay: Ro15-1788 competition binding assay, rat cortex membranes; conditions: displacement of 3H Ro15-1788, rat cortex membranes
Experimental: Rat cortex membranes are prepared by homogenizing one or two previously frozen rat cortexes in 30 ml of 25 mM Tris Buffer, pH 7.4. The homogenate is centrifuged for 10 minutes at 500×g. The supernatant is then transferred to a clean centrifuge tube and the pellet discarded. The supernatant is spun for 20 minutes at 48,000×g. The supernatant from this spin is discarded and the pellet is resuspended in 30 ml of 25 mM Tris Buffer, pH 7.4 and centrifuged for an additional 10 minutes at 48,000×g. The supernatant from the final spin is discarded and the membrane pellet is resuspended in 100 mL Tris buffer per gram of cortex used.
The cortex membrane preparation is used to perform either percent inhibition or competition binding assays. In order to determine percent inhibition 300 μl of resuspended membranes are mixed with 200 μl ^3H labeled Ro15-1788 (final concentration 2.5 nM) and incubated for 1 hour on ice in the presence of 2 μl test compound in DMSO (final concentration 4 μM). Membranes are harvested onto untreated filtermats. The filtermats are dried and the ^3H Ro15-1788 signal is counted in a scintillation counter. Nonspecific binding is determined by displacement of ^3H Ro15-1788 with 10 μM Diazepam (RBI) or any other compound known to bind tightly at the benzodiazepine site.
Ki values are calculated according to the Cheng-Prussof equation.

[2] = molecular target: α1β2γ2 GABAA subtype receptor (Homo sapiens, UniProt P14867+P18507); assay: cell-based; conditions: human subunits, GABA at EC10
Chain of α1β2γ2 GABAA subtype receptor (P14867 28-456): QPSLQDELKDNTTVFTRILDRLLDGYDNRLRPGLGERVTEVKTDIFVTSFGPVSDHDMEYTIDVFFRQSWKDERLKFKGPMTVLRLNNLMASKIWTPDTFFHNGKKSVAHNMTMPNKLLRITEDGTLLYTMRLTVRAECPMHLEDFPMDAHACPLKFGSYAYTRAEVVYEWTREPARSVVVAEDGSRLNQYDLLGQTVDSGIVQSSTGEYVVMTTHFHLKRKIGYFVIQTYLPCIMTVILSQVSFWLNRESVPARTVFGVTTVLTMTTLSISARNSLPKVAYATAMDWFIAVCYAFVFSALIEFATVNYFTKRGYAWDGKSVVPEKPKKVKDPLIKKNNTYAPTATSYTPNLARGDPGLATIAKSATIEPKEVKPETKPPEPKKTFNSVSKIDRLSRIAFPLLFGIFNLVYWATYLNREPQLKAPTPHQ
Chain of α1β2γ2 GABAA subtype receptor (P47870 25-512 partner limits assumed): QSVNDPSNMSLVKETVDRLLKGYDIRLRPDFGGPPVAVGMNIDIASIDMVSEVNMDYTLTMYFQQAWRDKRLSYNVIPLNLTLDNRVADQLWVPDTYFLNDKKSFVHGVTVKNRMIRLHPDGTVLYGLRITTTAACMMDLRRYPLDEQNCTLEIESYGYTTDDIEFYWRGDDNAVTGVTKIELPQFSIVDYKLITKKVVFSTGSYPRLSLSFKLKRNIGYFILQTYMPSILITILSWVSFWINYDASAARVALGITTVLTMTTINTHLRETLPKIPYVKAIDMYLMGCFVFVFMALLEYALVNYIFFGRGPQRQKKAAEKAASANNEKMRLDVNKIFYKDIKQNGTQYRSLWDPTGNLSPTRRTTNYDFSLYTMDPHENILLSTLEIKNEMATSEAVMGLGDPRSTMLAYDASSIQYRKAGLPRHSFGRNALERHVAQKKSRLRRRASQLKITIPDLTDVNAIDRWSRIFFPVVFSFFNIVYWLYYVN
Chain of α1β2γ2 GABAA subtype receptor (P18507 40-475): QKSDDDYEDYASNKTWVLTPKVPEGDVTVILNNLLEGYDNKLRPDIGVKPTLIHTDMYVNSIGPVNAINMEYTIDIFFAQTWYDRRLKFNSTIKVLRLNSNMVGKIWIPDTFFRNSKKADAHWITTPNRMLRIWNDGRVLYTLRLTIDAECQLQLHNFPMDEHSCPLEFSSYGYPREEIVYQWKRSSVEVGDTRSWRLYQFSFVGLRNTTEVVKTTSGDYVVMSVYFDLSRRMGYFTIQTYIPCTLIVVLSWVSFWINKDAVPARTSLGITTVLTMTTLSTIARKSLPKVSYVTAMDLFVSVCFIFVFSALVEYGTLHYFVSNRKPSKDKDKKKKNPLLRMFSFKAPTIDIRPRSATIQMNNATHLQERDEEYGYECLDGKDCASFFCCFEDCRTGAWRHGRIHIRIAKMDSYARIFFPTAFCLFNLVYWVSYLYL
Text: (§1) The in vitro efficacy and EC50 value of the test compound may be determined by measuring the chloride flux at the surface of a cell expressing the α,β, and γ subunits of the GABAA receptor in response to GABA by the two electrode voltage-clamp technique. While a variety of cells are suitable for use herein, the preferred cells used in this technique are Xenopus laevis oocytes that have been injected with non-polyadenylated CRNA coding for human derived α, βand γ GABAA subunits. The preferred form of the γ subunit is the normally expressed long form although an alternatively spliced form may be used.
(§2) Assays are carried out as described previously in White and Gurley, 1995 and White, et al., 1995. Xenopus laevis oocytes are enzymatically isolated and injected with non-polyadenylated cRNA for human derived α, β and γ GABAA subunits, respectively. In more preferred embodiments cRNA for the α1β2γ2, α2β3γ2, α3β3γ2, and α5β3γ2 subunit combinations are injected. Only one of these subunit combinations is injected per cell. For each subunit combination, sufficient message is injected to result in current amplitudes of >10 nA when 1 μM GABA is applied. Electrophysiological recordings are carried out using the two electrode voltage-clamp technique at a membrane holding potential of −70 mV.
(§3) Compounds are evaluated against a GABA concentration that evokes <10% (EC10) of the maximal evocable GABA current. Each oocyte is exposed to increasing concentrations of compound in order to evaluate a concentration/effect relationship.
(§4) Specificity of a compound for the Ro15-1788 site is determined following completion of the concentration/effect curve. After washing the oocyte sufficiently to remove previously applied compound, the oocyte is exposed to GABA and 1 μM Ro15-1788, followed by exposure to GABA, 1 μM Ro15-1788, and compound. Percent change due to addition of compound is calculated as described above. Any percent change observed in the presence of Ro15-1788 is subtracted from the percent changes in current amplitude observed in the absence of 1 μM Ro15-1788. These net values are used for the calculation of average activity and EC50 values.
(§5) To evaluate average activity and EC50 values, the concentration/effect data are averaged across cells and fit to the logistic equation. Average values are reported as mean±standard error.

[3] = molecular target: α2β3γ2 GABAA subtype receptor (Homo sapiens, UniProt P18507+P47869); assay: cell-based; conditions: oocyte electrophysiology EC50 α2β3γ2, Xenopus laevis oocytes, human subunits, GABA at EC10
Chain of α2β3γ2 GABAA subtype receptor (P47869 29-451): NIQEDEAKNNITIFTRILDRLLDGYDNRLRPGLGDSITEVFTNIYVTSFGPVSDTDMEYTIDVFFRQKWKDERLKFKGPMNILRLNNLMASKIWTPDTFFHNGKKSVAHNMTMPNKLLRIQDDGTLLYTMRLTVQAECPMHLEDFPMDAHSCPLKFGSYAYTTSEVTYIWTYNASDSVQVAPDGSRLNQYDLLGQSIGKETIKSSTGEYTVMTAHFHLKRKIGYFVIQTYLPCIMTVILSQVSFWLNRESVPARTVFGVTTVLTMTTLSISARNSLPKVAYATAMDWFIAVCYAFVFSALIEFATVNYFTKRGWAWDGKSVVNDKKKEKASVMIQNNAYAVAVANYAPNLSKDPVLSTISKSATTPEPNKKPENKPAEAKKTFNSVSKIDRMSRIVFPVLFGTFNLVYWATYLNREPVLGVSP
Chain of α2β3γ2 GABAA subtype receptor (P28472 26-473 partner): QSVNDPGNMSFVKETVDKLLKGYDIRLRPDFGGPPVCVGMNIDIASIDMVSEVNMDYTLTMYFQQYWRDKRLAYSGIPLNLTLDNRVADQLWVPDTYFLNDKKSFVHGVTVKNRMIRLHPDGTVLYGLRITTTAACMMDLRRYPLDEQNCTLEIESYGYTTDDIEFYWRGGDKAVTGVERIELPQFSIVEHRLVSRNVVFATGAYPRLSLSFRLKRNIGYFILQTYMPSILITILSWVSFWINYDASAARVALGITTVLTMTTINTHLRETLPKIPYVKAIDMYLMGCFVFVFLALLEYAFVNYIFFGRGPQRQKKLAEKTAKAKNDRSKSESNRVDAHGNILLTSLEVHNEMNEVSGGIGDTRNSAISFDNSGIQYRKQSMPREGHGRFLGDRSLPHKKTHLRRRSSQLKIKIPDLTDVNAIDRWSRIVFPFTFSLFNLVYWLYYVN
Chain of α2β3γ2 GABAA subtype receptor (P18507 40-475): as the sequence (P18507 40-475) above
Text: as §1, §2, §3, §4, §5

[4] = molecular target: α3β3γ2 GABAA subtype receptor (Homo sapiens, UniProt P18507+P34903); assay: cell-based; conditions: oocyte electrophysiology EC50 α3β3γ2, Xenopus laevis oocytes, human subunits, GABA at EC10
Chain of α3β3γ2 GABAA subtype receptor (P34903 29-492): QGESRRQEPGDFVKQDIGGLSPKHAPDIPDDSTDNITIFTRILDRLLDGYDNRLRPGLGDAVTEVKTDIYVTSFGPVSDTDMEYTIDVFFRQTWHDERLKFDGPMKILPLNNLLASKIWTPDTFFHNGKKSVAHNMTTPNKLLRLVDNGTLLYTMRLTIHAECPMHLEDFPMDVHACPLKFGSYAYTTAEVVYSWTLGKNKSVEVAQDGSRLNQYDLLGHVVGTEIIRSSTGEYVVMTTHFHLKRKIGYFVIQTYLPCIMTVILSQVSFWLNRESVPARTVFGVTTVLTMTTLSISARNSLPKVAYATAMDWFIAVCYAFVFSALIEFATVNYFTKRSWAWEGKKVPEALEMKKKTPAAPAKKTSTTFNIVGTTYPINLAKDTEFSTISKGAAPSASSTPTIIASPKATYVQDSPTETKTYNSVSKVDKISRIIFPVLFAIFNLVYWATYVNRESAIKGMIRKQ
Chain of α3β3γ2 GABAA subtype receptor (P28472 26-473 partner): as the sequence (P28472 26-473 partner) above
Chain of α3β3γ2 GABAA subtype receptor (P18507 40-475): as the sequence (P18507 40-475) above
Text: as §1, §2, §3, §4, §5

[5] = molecular target: α5β3γ2 GABAA subtype receptor (Homo sapiens, UniProt P18507+P31644); assay: cell-based; conditions: human subunits, GABA at EC10
Chain of α5β3γ2 GABAA subtype receptor (P31644 32-462): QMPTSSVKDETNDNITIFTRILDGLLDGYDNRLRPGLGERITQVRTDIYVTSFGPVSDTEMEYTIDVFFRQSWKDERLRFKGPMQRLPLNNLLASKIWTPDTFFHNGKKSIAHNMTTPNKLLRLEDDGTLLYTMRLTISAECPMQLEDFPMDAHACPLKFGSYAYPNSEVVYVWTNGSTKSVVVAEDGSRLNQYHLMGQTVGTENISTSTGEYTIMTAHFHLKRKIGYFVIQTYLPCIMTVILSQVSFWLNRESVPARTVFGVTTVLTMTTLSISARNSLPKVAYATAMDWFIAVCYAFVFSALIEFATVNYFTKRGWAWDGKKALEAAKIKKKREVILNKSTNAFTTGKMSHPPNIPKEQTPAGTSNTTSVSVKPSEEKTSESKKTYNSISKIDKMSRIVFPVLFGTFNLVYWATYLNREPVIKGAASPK
Chain of α5β3γ2 GABAA subtype receptor (P28472 26-473 partner): as the sequence (P28472 26-473 partner) above
Chain of α5β3γ2 GABAA subtype receptor (P18507 40-475): as the sequence (P18507 40-475) above
Text: as §1, §2, §3, §4, §5

rats [6] = assay: step-down passive avoidance; type: in vivo; conditions: rat, IV; cognitive enhancement (Table X)
Text: (§6) A statistically significant effect in the spatial water maze, step-down passive avoidance, spontaneous locomotor activity, Porsolt swim test, or the elevated plus maze models is defined as p<0.05 using a valid parametric statistical test. Likewise, no statistically significant effect is defined in these models as p>0.05 using a valid parametric statistical test. No statistically significant effect for either of the seizure threshold models is defined as a decrease of less than 25% in the seizure threshold in the presence of a seizure inducing drug or a result that is not significant at the p<0.05 level.
In step-down passive avoidance a rat is placed on a platform located in the center of an electrified grid floor that is contained within a large (45 cm×45 cm×50 cm) white translucent Plexiglas® enclosure. The natural inclination of the rat is to step off the platform and investigate its surroundings. […] Each time the animal steps off the platform it receives a mild foot shock of 2 mAmps×6 sec. Following each shock the animal is removed from the box, placed in its cage for a one minute inter-trial interval, and then returned to the platform. The latency to step down on each trial, the number of trials taken to reach criterion during training and the retention latency are collected.
Testing is conducted approximately 24 hrs. after training. Drug-free animals are placed on the platform in the box in which they will have been trained and the latency to step down onto the grid floor is recorded for one trial as a measure of memory retention.

rats [7] = assay: bicuculline seizure threshold test; type: in vivo; conditions: rat; proconvulsant activity; NS = no statistically significant effect versus vehicle
Text: as §6
This test provides a measure of whether the test compound is proconvulsant by measuring whether the test compound produces any change in the dose of the seizure inducing drug, bicuculline, needed to elicit seizures in rats. […]
Adult male Sprague-Dawley rats (175-300 g) are weighed and placed in a rat restrainer. […] Patency of catheter placement is tested by backflow of venous blood and ready infusion of less than 2 ml of saline solution. […]
Test compound is infused 5 minutes prior to the start of bicuculline infusion. […] The time elapsed from the start of bicuculline infusion to first myoclonic jerk (first head/neck twitch), the initiation of full myoclonus (writhing), and final forelimb extension is all recorded using a digital stopwatch. […]

[8] = Xenopus laevis oocytes, negative = inverse agonism

**Q.** How did the pKi [1] turn out when `O=C1C2C=Nc3ccccc3C2=NN1c1ccccc1` (stereo not drawn) [CGS 8216, reference compound] was run?
**A.** 9.70

**Q.** And the “oocyte electrophysiology maximum potentiation α1β2γ2” value [2, 8]?
**A.** −26%

**Q.** What about the pEC50 ([2]; oocyte electrophysiology EC50 α1β2γ2, Xenopus laevis oocytes) of the same molecule?
**A.** 9.15

**Q.** What about the pEC50 [3] of the same molecule?
**A.** 8.70

**Q.** What about the pEC50 [4] of the same molecule?
**A.** 8.70

**Q.** And the “oocyte electrophysiology maximum potentiation α5β3γ2” value [5, 8]?
**A.** −39%

**Q.** What about the pEC50 ([5]; oocyte electrophysiology EC50 α5β3γ2, Xenopus laevis oocytes) of the same molecule?
**A.** 9.00

**Q.** What about the “cognitive model: step-down passive avoidance, minimal efficacious dose” value (rats [6]) of the same molecule?
**A.** 0.06 mg/kg

**Q.** And the “bicuculline seizure threshold, mean percent decrease in seizure threshold over the dose range studied” value (rats [7])?
**A.** 50%
